Here are results for 7 compounds from paper PMC12951562, “SH2scan: Mapping SH2 Domain-Ligand Binding Selectivity for Inhibitors and Degraders” (Journal of Medicinal Chemistry, 2026).

Experiment in all cases: biochemical
What all share (type): binding

The target of one assay is T1, STAT1 (Homo sapiens, UniProt P42224).
T1 construct: made in house; host or cells: HEK293 (transient transfection), unpurified extract
T1 sequence (P42224 1-750): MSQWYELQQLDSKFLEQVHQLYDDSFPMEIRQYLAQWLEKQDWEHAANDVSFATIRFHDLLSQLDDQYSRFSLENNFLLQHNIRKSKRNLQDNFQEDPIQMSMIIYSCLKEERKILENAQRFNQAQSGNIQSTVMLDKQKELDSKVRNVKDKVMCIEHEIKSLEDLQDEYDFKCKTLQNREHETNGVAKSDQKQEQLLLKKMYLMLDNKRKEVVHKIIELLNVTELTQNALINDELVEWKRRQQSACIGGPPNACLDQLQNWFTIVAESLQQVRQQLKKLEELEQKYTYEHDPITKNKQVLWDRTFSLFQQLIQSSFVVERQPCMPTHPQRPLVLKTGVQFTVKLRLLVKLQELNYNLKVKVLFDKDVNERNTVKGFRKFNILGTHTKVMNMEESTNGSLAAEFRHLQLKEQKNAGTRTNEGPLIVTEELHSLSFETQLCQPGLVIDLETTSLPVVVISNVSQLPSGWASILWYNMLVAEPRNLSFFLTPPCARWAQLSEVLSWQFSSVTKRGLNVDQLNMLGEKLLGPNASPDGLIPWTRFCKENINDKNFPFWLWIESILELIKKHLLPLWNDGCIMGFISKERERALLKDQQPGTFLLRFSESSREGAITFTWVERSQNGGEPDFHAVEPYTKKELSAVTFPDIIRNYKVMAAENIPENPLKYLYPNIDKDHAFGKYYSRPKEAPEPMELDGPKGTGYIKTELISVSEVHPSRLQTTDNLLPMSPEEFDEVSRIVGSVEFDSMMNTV

The target in another assay is T2, PIK3R1(SH2dom.C-term.) (Homo sapiens, UniProt P27986).
T2 construct: SH2dom.C-term. denotes SH2 domain closest to C-terminus of protein; made in house; host or cells: HEK293 (transient transfection, unpurified extract)
T2 sequence (P27986 624-718 limits assumed): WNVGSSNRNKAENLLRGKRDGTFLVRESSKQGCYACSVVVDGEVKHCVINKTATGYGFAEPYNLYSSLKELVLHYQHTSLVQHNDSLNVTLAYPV

In another assay the target is T3, PIK3R2(SH2dom.C-term.) (Homo sapiens, UniProt O00459).
T3 construct: SH2dom.C-term. denotes SH2 domain closest to C-terminus of protein; made in house; host or cells: HEK293 (transient transfection, unpurified extract)
T3 sequence (O00459 622-716 limits assumed): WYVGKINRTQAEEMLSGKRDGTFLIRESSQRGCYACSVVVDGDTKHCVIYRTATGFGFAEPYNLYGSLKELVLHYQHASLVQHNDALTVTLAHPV

The target in the next assay is T4, PIK3R3(SH2dom.C-term.) (Homo sapiens, UniProt Q92569).
T4 construct: SH2dom.C-term. denotes SH2 domain closest to C-terminus of protein; made in house; host or cells: HEK293 (transient transfection, unpurified extract)

Another assay deals with T5, STAT4 (Homo sapiens, UniProt Q14765).
T5 construct: made in house; host or cells: HEK293 (transient transfection), unpurified extract
T5 sequence (Q14765 1-748): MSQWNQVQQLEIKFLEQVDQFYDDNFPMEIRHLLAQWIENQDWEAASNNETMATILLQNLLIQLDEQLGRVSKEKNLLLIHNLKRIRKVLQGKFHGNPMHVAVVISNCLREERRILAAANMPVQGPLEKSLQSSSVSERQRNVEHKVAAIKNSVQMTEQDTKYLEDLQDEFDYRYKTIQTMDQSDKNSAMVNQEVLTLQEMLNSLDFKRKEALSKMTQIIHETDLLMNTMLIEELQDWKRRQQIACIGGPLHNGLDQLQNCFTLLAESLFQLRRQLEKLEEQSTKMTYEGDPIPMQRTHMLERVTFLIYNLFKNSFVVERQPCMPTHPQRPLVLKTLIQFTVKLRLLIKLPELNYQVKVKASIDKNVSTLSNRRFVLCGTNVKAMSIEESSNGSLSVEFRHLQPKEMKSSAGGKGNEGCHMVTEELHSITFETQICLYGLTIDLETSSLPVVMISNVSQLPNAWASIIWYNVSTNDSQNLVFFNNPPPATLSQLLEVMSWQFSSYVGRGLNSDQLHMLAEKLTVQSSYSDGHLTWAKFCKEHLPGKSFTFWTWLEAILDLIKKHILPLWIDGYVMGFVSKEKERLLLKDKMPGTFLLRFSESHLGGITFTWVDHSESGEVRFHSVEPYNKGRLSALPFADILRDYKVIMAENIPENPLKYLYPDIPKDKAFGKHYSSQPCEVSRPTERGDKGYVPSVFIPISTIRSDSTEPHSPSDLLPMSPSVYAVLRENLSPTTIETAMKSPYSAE

The next assay deals with T6, STAT6 (Homo sapiens, UniProt P42226).
T6 construct: made in house; host or cells: HEK293 (transient transfection), unpurified extract
T6 sequence (P42226 1-847): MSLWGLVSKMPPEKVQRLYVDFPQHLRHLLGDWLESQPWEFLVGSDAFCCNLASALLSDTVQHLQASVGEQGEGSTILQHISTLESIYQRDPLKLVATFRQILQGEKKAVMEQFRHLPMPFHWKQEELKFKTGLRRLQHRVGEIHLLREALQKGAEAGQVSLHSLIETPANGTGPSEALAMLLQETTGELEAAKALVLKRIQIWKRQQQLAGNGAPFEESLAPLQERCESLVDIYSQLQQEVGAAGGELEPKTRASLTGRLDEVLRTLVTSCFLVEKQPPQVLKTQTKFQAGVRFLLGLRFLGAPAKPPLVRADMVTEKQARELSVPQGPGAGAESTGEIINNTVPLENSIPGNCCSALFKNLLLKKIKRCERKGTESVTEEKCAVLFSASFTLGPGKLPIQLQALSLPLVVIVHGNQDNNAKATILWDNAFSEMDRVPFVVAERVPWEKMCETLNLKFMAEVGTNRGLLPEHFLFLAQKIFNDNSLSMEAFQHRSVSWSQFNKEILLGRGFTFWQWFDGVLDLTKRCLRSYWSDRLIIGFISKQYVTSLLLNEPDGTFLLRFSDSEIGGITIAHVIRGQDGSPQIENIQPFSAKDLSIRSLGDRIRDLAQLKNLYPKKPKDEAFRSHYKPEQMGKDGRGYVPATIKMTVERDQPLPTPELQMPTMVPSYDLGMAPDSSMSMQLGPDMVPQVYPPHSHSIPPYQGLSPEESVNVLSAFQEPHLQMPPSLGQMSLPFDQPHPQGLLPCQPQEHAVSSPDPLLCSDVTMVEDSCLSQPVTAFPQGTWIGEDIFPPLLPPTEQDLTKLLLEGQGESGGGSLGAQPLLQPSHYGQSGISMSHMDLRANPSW

A further assay has as its target T7, STAT5B (Homo sapiens, UniProt P51692).
T7 construct: made in house; host or cells: HEK293 (transient transfection), unpurified extract
T7 sequence (P51692 1-787): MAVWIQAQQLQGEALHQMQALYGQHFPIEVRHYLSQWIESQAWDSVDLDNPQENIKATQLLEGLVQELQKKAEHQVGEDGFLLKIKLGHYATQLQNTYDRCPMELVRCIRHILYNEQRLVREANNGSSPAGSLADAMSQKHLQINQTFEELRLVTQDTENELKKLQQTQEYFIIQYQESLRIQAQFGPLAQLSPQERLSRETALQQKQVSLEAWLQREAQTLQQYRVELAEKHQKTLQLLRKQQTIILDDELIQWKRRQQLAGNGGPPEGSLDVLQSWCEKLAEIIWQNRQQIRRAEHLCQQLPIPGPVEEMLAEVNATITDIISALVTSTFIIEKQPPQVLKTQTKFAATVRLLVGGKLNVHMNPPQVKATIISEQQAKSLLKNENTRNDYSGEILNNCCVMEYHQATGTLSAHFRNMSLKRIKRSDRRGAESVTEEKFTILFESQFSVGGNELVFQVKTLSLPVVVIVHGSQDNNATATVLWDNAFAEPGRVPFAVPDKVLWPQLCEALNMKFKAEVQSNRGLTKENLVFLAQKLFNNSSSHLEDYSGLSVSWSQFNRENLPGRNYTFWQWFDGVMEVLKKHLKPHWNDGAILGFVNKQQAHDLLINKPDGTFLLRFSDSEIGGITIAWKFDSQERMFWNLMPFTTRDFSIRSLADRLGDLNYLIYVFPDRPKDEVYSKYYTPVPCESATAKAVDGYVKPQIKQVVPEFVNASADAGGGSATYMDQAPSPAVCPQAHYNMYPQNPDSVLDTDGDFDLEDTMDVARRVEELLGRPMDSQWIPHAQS

The next assay concerns the target T8, STAT5B(N642H) (Homo sapiens, UniProt P51692, N642H).
T8 construct: made in house; host or cells: HEK293 (transient transfection), unpurified extract
T8 sequence (P51692 1-787 N642H): T7 sequence (P51692 1-787) with N642H

The target of a further assay is T9, ABL1 (Homo sapiens, UniProt P00519).
T9 construct: the DNA-tagged SH2 domain concentrations used in this study were <0.1 nM; made in house; host or cells: HEK293 (transient transfection; unpurified extract)
T9 sequence (P00519 127-217 limits assumed): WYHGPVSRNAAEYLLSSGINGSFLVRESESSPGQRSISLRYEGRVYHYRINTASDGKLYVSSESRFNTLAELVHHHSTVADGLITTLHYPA

For another assay, the target named is T10, FER (Homo sapiens, UniProt P16591).
T10 construct: the DNA-tagged SH2 domain concentrations used in this study were <0.1 nM; made in house; host or cells: HEK293 (transient transfection; unpurified extract)
T10 sequence (P16591 460-550 limits assumed): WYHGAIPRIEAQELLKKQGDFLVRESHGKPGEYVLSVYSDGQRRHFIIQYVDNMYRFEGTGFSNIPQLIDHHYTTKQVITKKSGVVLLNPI

Residue numbers refer to the chain shown, from its start. Non-standard residues stand in square brackets, D forms with d. Residues, ends and D or L forms follow the SMILES beside them. pY = N[C@@H](Cc1ccc(OP(=O)(O)O)cc1)C(=O)O

For the compound `CC(=O)NCC(=O)N[C@@H](Cc1ccc(OP(=O)(O)O)cc1)C(=O)N[C@@H](CC(=O)O)C(=O)N[C@@H](CCCCN)C(=O)N1CCC[C@H]1C(=O)N[C@@H](Cc1c[nH]cn1)C(=O)N[C@H](C(=O)N[C@@H](CC(C)C)C(N)=O)C(C)C` [Ac-GpYDKPHVL-NH2] (Ac-G[pY]DKPHVL-NH2), the affinity on STAT1, expressed as Kd, was 155 ± 38.2 nM.

As for `CSCC[C@H](NC(=O)[C@@H]1CCCN1C(=O)[C@@H](NC(=O)[C@H](Cc1ccc(OP(=O)(O)O)cc1)NC(=O)CNC(C)=O)C(C)C)C(=O)N[C@@H](CC(C)C)C(=O)O` [Ac-GpYVPML-OH] (Ac-G[pY]VPML-OH), the Kd on PIK3R1(SH2dom.C-term.) is 4.24 ± 0.48 nM; on PIK3R2(SH2dom.C-term.) it was 4.82 ± 1.95 nM; at PIK3R3(SH2dom.C-term.) it was 2.27 ± 0.32 nM.

`CSCC[C@H](NC(=O)[C@H](CC(=O)O)NC(=O)[C@H](Cc1ccc(OP(=O)(O)O)cc1)NC(=O)[C@H](CC(=O)O)NC(=O)[C@H](Cc1ccccc1)NC(=O)[C@H](CO)NC(C)=O)C(=O)N1CCC[C@H]1C(=O)N[C@@H](Cc1c[nH]cn1)C(=O)N[C@H](C(=O)N[C@@H](CC(C)C)C(N)=O)C(C)C` [Ac-SFDpYDMPHVL-NH2] (Ac-SFD[pY]DMPHVL-NH2): binding at STAT4 was put at a Kd of 1280 ± 133 nM. In turn, `CC[C@H](C)[C@H](NC(=O)[C@H](CC(C)C)NC(=O)[C@H](CC(=O)O)NC(=O)[C@H](CCC(N)=O)NC(=O)[C@H](Cc1ccccc1)NC(=O)[C@@H]1CCCN1C(=O)[C@H](CCCCN)NC(=O)[C@H](Cc1ccc(OP(=O)(O)O)cc1)NC(C)=O)C(N)=O` (Ac-[pY]KPFQDLI-NH2) yielded a Kd at STAT6 of 928 ± 249 nM. In the case of `CC(C)C[C@H](NC(=O)[C@H](Cc1c[nH]c2ccccc12)NC(=O)[C@H](CCCCN)NC(=O)[C@H](CC(=O)O)NC(=O)[C@H](CC(C)C)NC(=O)[C@@H](NC(=O)[C@H](CC(C)C)NC(=O)[C@H](Cc1ccc(OP(=O)(O)O)cc1)NC(=O)[C@@H](NC(=O)[C@H](CC(=O)O)NC(=O)[C@@H](N)CCC(N)=O)[C@@H](C)O)C(C)C)C(=O)O` (H-QDT[pY]LVLDKWL-OH), the Kd at STAT5B came out at 1020 ± 179 nM; on STAT5B(N642H) it was 97.8 ± 43.3 nM.

Turning to `CC(=O)N[C@@H](CCCCN)C(=O)N[C@@H](CCC(=O)O)C(=O)N[C@@H](CCC(=O)O)C(=O)NCC(=O)N[C@@H](Cc1ccc(OP(=O)(O)O)cc1)C(=O)N[C@@H](CCC(=O)O)C(=O)N[C@@H](CC(C)C)C(=O)N1CCC[C@H]1C(=O)N[C@@H](Cc1ccc(O)cc1)C(=O)N[C@@H](CC(N)=O)C(=O)N1CCC[C@H]1C(N)=O` [Ac-KEEGpYELPYNP-NH2], binding on ABL1 was characterised by a dissociation constant (Kd) of 28800 ± 8130 nM. At FER, `CC(=O)N[C@@H](CC(=O)O)C(=O)N[C@@H](CCC(=O)O)C(=O)N[C@@H](Cc1ccc(OP(=O)(O)O)cc1)C(=O)N[C@@H](CCC(=O)O)C(=O)N[C@@H](CC(N)=O)C(=O)N[C@H](C(=O)N[C@@H](CC(=O)O)C(N)=O)C(C)C` [Ac-DEpYENVD-NH2] (Ac-DE[pY]ENVD-NH2) displayed a Kd of 7770 ± 2130 nM.

What is called Kd is the constant that tells how readily two partners part at equilibrium. Lower therefore signals tighter binding.
